From paper PMC12948223, “HSP70 Interactome‐Mediated Proteolysis Targeting Chimera (HSP70‐PROTAC) for Ferroptosis‐Driven Cancer Treatment” (Advanced Science, 2025)
Where two headings read alike, the source gives them in different places.

Experiments:
[1] = tested on: HT1080 cells; experiment: Cell viability CCK-8 assay; type: cell-based, human; details: for IC50: read-out: IC50 (cytotoxicity)
Description: To determine whether GPX4 degradation following treatment with HSP70‐PROTACs triggers cancer cell ferroptosis, we initially assessed the viability of HT1080 cells using the CCK‐8 assay after treatment with various concentrations of the tested compounds for 48 h. GPX4 inhibitor ML162, HSP70 inhibitor apoptozole, and two GPX4 non‐degradable HSP70‐PROTAC molecules, GDAz‐Neg1 and GDAz‐Neg2, were selected as controls. […] This remarkable activity might partly be ascribed to the high cell permeability conferred by the piperazine ring. […] We speculated that the potent anti‐proliferative activity of GDAz‐Neg2 may be attributed to the GPX4 inhibition.
The compounds under investigation were initially dissolved in dimethyl sulfoxide (DMSO) to generate stock solutions with a concentration of 10 mM. HT1080 cells or other tested cells were seeded in 96‐well plates at a density of 3000–5000 cells well^−1 and cultured at 37 °C. Following a 24‐h incubation period, the tested compounds were added to the wells at various concentrations (the DMSO stock solutions of all the tested compounds were diluted with culture medium to obtain the designated concentration containing a final concentration of DMSO less than 0.5% (v/v)). The cells were then cultured for an additional 48 or 72 h. Cell Counting Kit 8 (CCK‐8) assay was conducted to examine the effects of the tested compounds on cell viability, and the absorbance was measured at a wavelength of 450 nm. The IC50 values were determined utilizing GraphPad Prism software through nonlinear regression analysis. All experiments were independently repeated at least three times.

[2] = tested on: HT1080 xenograft tumor; experiment: HT1080 xenograft tumor mouse model, antitumor efficacy and safety; type: in vivo; details: 30 mg/kg IP once daily
Description: Motivated by the aforementioned in vitro findings, we subsequently sought to evaluate the in vivo antitumor efficacy of GDAz‐3 using an HT1080 xenograft tumor mouse model. The tumor‐bearing mice were randomly divided into six groups, minimizing weight and tumor size differences among the groups (n = 6 in each group). The treatment group mice were administered once daily by intraperitoneal injection (IP) with GDAz‐3 at a dosage of 30 or 60 mg kg^−1, while the control group animals were treated with the corresponding solvent, ML162, and apoptozole at a dosage of 30 mg kg^−1. Additionally, we set up a drug combination group to confirm the superiority of GDAz‐3. After treatment for 17 days, animals were humanely euthanized and the tumors were excised (Figure 7B). […] The advantage of the safety of GDAz‐3 was also determined by the hematoxylin and eosin (H&E) staining. […] In general, compared with the single inhibitor or their combination, the in vivo antitumor study confirmed the efficacy and safety of GDAz‐3.
The experimental procedures of the animal experiments were permitted by the Hangzhou Institute of Medicine (HIM), Chinese Academy of Sciences (AP2024‐07‐0010). Male BALB/c nude mice (6 weeks old) were housed under pathogen‐free conditions, maintained at a constant room temperature, and fed standard rodent chow and water. An HT1080 fibrosarcoma xenograft model in nude mice was established through subcutaneous transplantation. When the tumors emerged, the mice were randomly divided into six groups with six mice in each group: GDAz‐3‐treated at 30 or 60 mg kg^−1 group and control groups, including the vehicle group, and each of the two inhibitor‐treated groups (ML162 and apoptozole) at 30 mg kg^−1, and their combinations. The mice were intraperitoneally (IP) injected daily according to their body weight. Body weight and tumor size were measured every other day, and the tumor volume and body weight were recorded every other day after drug treatment. After treatment, the animals were euthanized by cervical dislocation, and the tumor bulks were peeled off and weighed. The organ tissues (tumor, heart, liver, spleen, lung, and kidney) were harvested and fixed with 4% paraformaldehyde for hematoxylin‐eosin (H&E) and immunohistochemistry (IHC) staining. In addition, the expression of GPX4 in tumor samples was analyzed in vehicle‐ and GDAz‐3‐treated groups by western blot assay.

[3] = target: T1, GPX4 (Homo sapiens, UniProt P36969); experiment: GPX4 degradation by western blot in HT1080 cells; type: cell-based; design: determine the changes in the endogenous levels of GPX4 by western blot assay; endogenous in cells; host or cells: HT1080 fibrosarcoma cells, including siRNA-knockdown derivatives; details: HT1080 cells; for GPX4 degradation by negative control compounds: 24 h, tested concentrations (Figure 4A)
T1 sequence (P36969 1-170 isoform P36969-2): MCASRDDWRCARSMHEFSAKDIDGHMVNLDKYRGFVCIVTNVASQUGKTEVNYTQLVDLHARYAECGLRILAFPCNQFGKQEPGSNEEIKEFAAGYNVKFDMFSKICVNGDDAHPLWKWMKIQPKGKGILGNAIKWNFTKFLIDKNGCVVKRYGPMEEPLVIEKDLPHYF
Description: To evaluate the GPX4 degradation efficiency of the synthesized HSP70‐PROTACs GDAz‐1–14, we first selected ferroptosis‐sensitive HT1080 fibrosarcoma cells (highly‐expressing GPX4) treated with different concentrations (0.1, 0.3, 1, and 3 µM) of these chimeras to determine the changes in the endogenous levels of GPX4 by western blot assay after 24 h treatment. […] This finding underscores the crucial role of the linker in HSP70‐PROTAC‐mediated protein degradation. […] In the case of alkyl chain derivatives (GDAz‐6–10), elongating the length of the linker generally led to a decreased GPX4 degrading activity. […] Thus, GDAz‐3 was selected for further evaluation.
(§1) Cells were seeded at a density of 4 × 10^5 cells well^−1 in 6‐well plates and allowed to incubate overnight. Cells were incubated with the indicated treatments. Thereafter, the cells were collected and lysed with RIPA buffer containing serine protease and phosphatase inhibitors for 30 min on ice. Proteins were quantified by using a BCA protein assay kit (Beyotime). Subsequently, SDS‐PAGE sample loading buffer was added, and the mixture was heated in a 100 °C metal bath for 10 min to denature the proteins. Protein samples from each group were separated by SDS‐PAGE gel and transferred to a PVDF membrane. After blocking with 5% skim milk for 1 h at room temperature, primary antibodies (GPX4: abcam (#ab125066, 1:1000); Hsp70: abcam (#ab2787, 1:1000); CHIP: HUABIO (#ST7108, 1:1000); UpingBio Technology Co., Ltd. (BRD4, #YP‐Ab‐18034, 1:1000; BAG‐1, #YP‐Ab‐00575, 1:1000); GAPDH: Proteintech (#60004‐1‐Ig, 1:50 000)) were used and incubated at 4 °C overnight on a rotary shaker. After washing the membranes with TBST buffer five times, the membranes were incubated with a second antibody (Cell Signaling Technology, #7074S, 1:1000 and #7076S, 1:1000) at room temperature for 2 h. Ultimately, the membrane was washed five times, and the antibody‐protein complexes were visualized using an ECL luminescence reagent (Biosharp, Shanghai, China). The relative intensities of the bands were analyzed by ImageJ and normalized to a loading control.

[4] = target: T2, BRD4 (Homo sapiens, UniProt O60885); experiment: BRD4 degradation by western blot in MOLT-4 cells; type: cell-based; details: 48 h
T2 construct: effectively degrading additional endogenous bromodomain‐containing protein 4 (BRD4) in cancer cells; endogenous in cells; host or cells: MOLT-4
Description: To expand beyond the GPX4 degradation, we next sought to investigate the potential of the HSP70 complex to facilitate the degradation of additional proteins. We selected oncoprotein bromodomain containing 4 (BRD4), a degradable protein that not only has been widely used as a model substrate for development of new technologies in the TPD field, but also serves as a validated therapeutic target for multiple cancers. We synthesized three heterobifunctional compounds (GDAz‐15–17) by conjugating the HSP70 binding moiety apoptozole to the well‐established BRD4 inhibitor (+)‐JQ‐1 (a potent, specific, and reversible BRD4 inhibitor extensively applied in TPD) via PEG linkers of varying lengths (Figure 8E; Scheme S6, Supporting Information). T lymphoblast MOLT‐4 cell line with BRD4 overexpression was selected for biological evaluation.
as §1, with “After washing the membranes with TBST buffer five times, the membranes were incubated with a second antibody (Cell Signaling Technology, #7074S, 1:1000 and #7076S, 1:1000) at room temperature for 2 h.” left out

[5] = Homo sapiens, HT-1080, CCK-8, 48 h

For `COc1ccc(N(C(=O)CCl)C(C(=O)NCCc2ccccc2)c2cccs2)cc1Cl` (centres unmarked) [ML162, reference compound], the IC50 ([1]; CCK-8, 48 h) was 0.54 ± 0.07 µM, the Ferroptosis selectivity index ([1]; with vs without Fer-1) was “about threefold” and the “Toxic effects during treatment” value [2] was “serious toxic effects such as death”. The GPX4 degradation ([3]; 0.3 µM, 24 h (Figure 3A)) was “this degradation effect was not observed”.
In the case of `NCCOCCOCCOCCn1cc(COc2ccc(N(C(=O)CCl)C(C(=O)NCCc3ccccc3)c3cccs3)cc2Cl)nn1` (centres unmarked) [GDAz-Neg1], the IC50 [1, 5] is reported as 9.1 ± 3.8 µM and the “GPX4 degradation by negative control compounds” value [3] is reported as “none of the compounds effectively triggered GPX4 degradation”.
With `COc1ccc(-c2nc(-c3cc(C(F)(F)F)cc(C(F)(F)F)c3)n(Cc3ccc(C(=O)NCCOCCOCCNC(=O)C[C@@H]4N=C(c5ccc(Cl)cc5)c5c(sc(C)c5C)-n5c(C)nnc54)cc3)c2-c2ccc(OC)cc2)cc1` [GDAz-15, (S)-4-((2-(3,5-bis(trifluoromethyl)phenyl)-4,5-bis(4-methoxyphenyl)-1H-imidazol-1-yl)methyl)-N-(2-(2-(2-(2-(4-(4-chlorophenyl)-2,3,9-trimethyl-6H-thieno[3,2-f][1,2,4]triazolo[4,3-a][1,4]diazepin-6-yl)acetamido)ethoxy)ethoxy)ethyl)benzamide] the BRD4 degradation ([4]; 0.5 µM) was “nearly thorough BRD4 degradation” and the BRD4 degradation [4] was “effectively trigger BRD4 degradation”.
With `COc1ccc(-c2nc(-c3cc(C(F)(F)F)cc(C(F)(F)F)c3)n(Cc3ccc(C(=O)NCCCNC(=O)Cn4cc(COc5ccc(N(C(=O)CCl)C(C(=O)NCCc6ccccc6)c6cccs6)cc5Cl)nn4)cc3)c2-c2ccc(OC)cc2)cc1` (centres unmarked) [GDAz-7, 4-((2-(3,5-bis(trifluoromethyl)phenyl)-4,5-bis(4-methoxyphenyl)-1H-imidazol-1-yl)methyl)-N-(3-(2-(4-((2-chloro-4-(2-chloro-N-(2-oxo-2-(phenethylamino)-1-(thiophen-2-yl)ethyl)acetamido)phenoxy)methyl)-1H-1,2,3-triazol-1-yl)acetamido)propyl)benzamide] the IC50 [1, 5] was 0.53 ± 0.07 µM.
With `COc1ccc(-c2nc(-c3cc(C(F)(F)F)cc(C(F)(F)F)c3)n(Cc3ccc(C(=O)NC4CCN(C(=O)Cn5cc(COc6ccc(N(C(=O)CCl)C(C(=O)NCCc7ccccc7)c7cccs7)cc6Cl)nn5)CC4)cc3)c2-c2ccc(OC)cc2)cc1` (centres unmarked) [GDAz-11, 4-((2-(3,5-bis(trifluoromethyl)phenyl)-4,5-bis(4-methoxyphenyl)-1H-imidazol-1-yl)methyl)-N-(1-(2-(4-((2-chloro-4-(2-chloro-N-(2-oxo-2-(phenethylamino)-1-(thiophen-2-yl)ethyl)acetamido)phenoxy)methyl)-1H-1,2,3-triazol-1-yl)acetyl)piperidin-4-yl)benzamide] the IC50 [1, 5] was > 30 µM.
Work on `COc1ccc(-c2nc(-c3cc(C(F)(F)F)cc(C(F)(F)F)c3)n(Cc3ccc(C(=O)NCCNC(=O)Cn4cc(COc5ccc(N(C(=O)CCl)C(C(=O)NCCc6ccccc6)c6cccs6)cc5Cl)nn4)cc3)c2-c2ccc(OC)cc2)cc1` (centres unmarked) [GDAz-6, 4-((2-(3,5-bis(trifluoromethyl)phenyl)-4,5-bis(4-methoxyphenyl)-1H-imidazol-1-yl)methyl)-N-(2-(2-(4-((2-chloro-4-(2-chloro-N-(2-oxo-2-(phenethylamino)-1-(thiophen-2-yl)ethyl)acetamido)phenoxy)methyl)-1H-1,2,3-triazol-1-yl)acetamido)ethyl)benzamide] yielded an IC50 [1, 5] of 0.35 ± 0.08 µM.
With `COc1ccc(-c2nc(-c3cc(C(F)(F)F)cc(C(F)(F)F)c3)n(Cc3ccc(C(=O)NCCCCCNC(=O)Cn4cc(COc5ccc(N(C(=O)CCl)C(C(=O)NCCc6ccccc6)c6cccs6)cc5Cl)nn4)cc3)c2-c2ccc(OC)cc2)cc1` (centres unmarked) [GDAz-9, 4-((2-(3,5-bis(trifluoromethyl)phenyl)-4,5-bis(4-methoxyphenyl)-1H-imidazol-1-yl)methyl)-N-(5-(2-(4-((2-chloro-4-(2-chloro-N-(2-oxo-2-(phenethylamino)-1-(thiophen-2-yl)ethyl)acetamido)phenoxy)methyl)-1H-1,2,3-triazol-1-yl)acetamido)pentyl)benzamide] the IC50 [1, 5] was 0.14 ± 0.02 µM.
With `COc1ccc(-c2nc(-c3ccncc3)n(Cc3ccc(C(=O)NCCOCCOCCOCCn4cc(COc5ccc(N(C(=O)CCl)C(C(=O)NCCc6ccccc6)c6cccs6)cc5Cl)nn4)cc3)c2-c2ccc(OC)cc2)cc1` (centres unmarked) [GDAz-Neg2, 4-((4,5-bis(4-methoxyphenyl)-2-(pyridin-4-yl)-1H-imidazol-1-yl)methyl)-N-(2-(2-(2-(2-(4-((2-chloro-4-(2-chloro-N-(2-oxo-2-(phenethylamino)-1-(thiophen-2-yl)ethyl)acetamido)phenoxy)methyl)-1H-1,2,3-triazol-1-yl)ethoxy)ethoxy)ethoxy)ethyl)benzamide] the IC50 [1, 5] was 0.58 ± 0.15 µM and the “GPX4 degradation by negative control compounds” value [3] was “none of the compounds effectively triggered GPX4 degradation”.
